As a reminder, the IC50 is the midpoint of a concentration-inhibition curve. As usually defined, the Kd is the constant that tells how readily two partners part at equilibrium. A higher Kd goes with lower affinity.

This is an account of results in patent US9102667B2, “N-arylaminomethylene benzothiophenones for treatment of cardiovascular disease” (FORSCHUNGSVERBUND BERLIN E.V., priority 2011, dated 2015).

In one series the target is AKAP-PKA interaction (Homo sapiens, UniProt P13861). The experiment in a line: AKAP-PKA interaction (disruption) assays of Examples 1-3: alpha screen, surface plasmon resonance, ELISA (combined classification). Type of series: binding. The conditions noted are these: for IC50: read-out: Activity (IC50 class); for Activity in AKAP-PKA interaction assays (in words): assays of Examples 1-3. How it is done: The inhibition of the interaction of the alpha RII subunit of protein kinase A with AKAP18-alpha by the compounds according to the invention is determined as follows:
The experiment measures the suitability of candidate compounds for the inhibition of the interaction between AKAP and PKA. An AKAP-GST fusion construct is immobilized on glutathione donor beads and His-RII-alpha on Ni-chelate acceptor beads. To the extent that the partners interact, singlet oxygen from the donor beads becomes free and activates the fluorescence emission of the acceptor beads. The fluorescence emission determined in the microplate reader is proportional to the intensity of interaction of the protein partners. The IC50 is determined from the results of the measurement of several concentrations of one candidate compound.
The details of the process were as follows: Two protein Solutions A and B are produced in a buffer (phosphate NaCl buffer, 0.1% polysorbate 80, 0.1% [=1 mg/ml BSA]). These contain (A) the histidine-6-tagged fusion construct RII-alpha-His (3.125 nmol/l) and (B) the glutathione-S-transferase-tagged fusion construct GST-AKAP18-alpha-d2-10 (6.25 nmol/l). One volume unit each of protein solution and bead suspension are incorporated, specifically Solution A of the His6-tagged protein with Ni-chelate bead suspension and Solution B of the GST-fusion protein with glutathione beads (Perkin Elmer Product No. 6765302), and in doing so the concentrations are selected according to the manufacturers information. The Mixtures A and B obtained are incubated for one hour at room temperature (RT) in the dark.
Then, 5 μl of Mixture A is laid out for each hole on a 384-hole microtiter plate, and then to start with 0.5 μl of a solution of the candidate compound in DMSO is added and then 5 μl of Mixture B. The resulting reaction mixture is incubated 1 h at RT in the dark. Then, the reaction is tempered to 28.5° C., and the emitter intensity of the acceptor is determined in a microtiter plate reader after excitation of the donor at 680 nm.
The relative inhibition of the AKAP-PKA interaction is calculated following the formula: 1−(xc−y)/(z−y) where: X=average of readings (n=3) at concentration c; Y=average of measurement data from bead-bead check (n=6); Z=average of measurement data from protein-protein check (n=6). Results:
Surface plasmon resonance analyses for competition in solution were performed with streptavidin-coated sensor chips (GE Healthcare, Uppsala, Sweden). The N-terminal biotinylated peptide AKAP18d-L314E was used, which is a variant of the RH-binding domains of AKAP18δ (Hundsrucker et al., Biochem. J. 396, 297-306, [2006]). The binding of the regulatory subunit of the human PKAII-α or RII-β onto the peptide surface of the AKAP18δ-L314E, or the inhibition of this binding to RII by the compounds of the invention, was measured on a Biacaore 3000 machine (Biacore/GE Healthcare) as previously described (Henn et al., J Biol Chem 279, 26654-26665 [2004]). The compounds were injected for 60 sec at a flow rate of 30 μl/min, and the dissociation phase was measured for 180 sec.
Multititer plates (Corning B.V. Life Sciences, Schiphol-Rijk, Netherlands) were coated with recombinantly produced PKA RIIα (15 ng/hole) by incubation with phosphate buffer containing protease inhibitors (1 h, 22° C.). The plate was then blocked with lactoprotein.
GST-AKA7δ (Hundsrucker et al., Biochem. J. 396, 297-306, [2006]; 15 ng/well) was incubated with and without candidate compounds on the plate for 1 h at 22° C. After washing, it was incubated with antibodies (rabbit) against AKA7δ (A18δ3) and then with a peroxidase-conjugated antirabbit antibody and developed with dye substrate (LumiLight Western Blotting Substrate, Roche Diagnostics, Mannheim, Germany). Luminescence activity was determined in a microplate reader (GeniosPro, Tecan, Durham, N.C., United States) at 10 msec integration.
For orientation: Surface plasmon resonance follows binding to a sensor surface in real time, without labels.

The target in a further series is PKA subunit RIIα (Homo sapiens, UniProt P13861). The experiment in a line: Microscale Thermophoresis (MST). As to conditions: 20 mM Phosphate, pH 7.5, 100 mM NaCl, 0.05% Tween 20, 5% DMSO, 25° C. It is filed as binding. How it is done:
Microscale Thermophoresis (MST) were performed on a monolith NT machine (nano tember technologies, Munich, Germany) with exemplary compounds (T2/11, 15, 59) in 20 mM Phosphate, pH 7.5, 100 mM NaCl, 0.05% Tween 20 and 5% DMSO according to the general protocol provided by the manufacturer. Interaction partners were PKA subunit RIIα labelled with blue fluorescent dye NT-495; the parameters were: LED blue, LED Power 80%, Laser Power 20-80%, 25° C. A constant concentration of compounds was titrated with increasing concentrations of unlabelled PKA RIIα (50 nM, 100 nM, 250 nM, 500 nM, 1 μM, 2.5 μM, 5 μM, 10 μM, 25 μM, 50 μM, 100 μM and 200 μM).
A general note: Microscale thermophoresis detects binding through changes in fluorescence in a small temperature gradient.

For series [1], the system named is TAC operated C57BL/6 mice. Put plainly: Echocardiography in the TAC model, Example 5a. Type of series: in vivo. On the procedure: Protocol: For intervention 12- to 14-week-old male C57BL/6 mice (Charles River Sulzfeld) were anesthetized by 2.4% isoflurane inhalation. Transverse aortic banding (TAC) was performed by tying a 7-0 prolene suture (Ethicon) ligature around the aorta and a blunted 26-gauge needle and subsequent removal of the needle. For sham controls the suture was not tied. TAC was confirmed by echocardiography and measurement of blood flow gradient 4 weeks after surgery. Next, mini-osmotic pumps (model 1004, Alzet) with T2/15 compound/vehicle were implanted i.p. Echocardiography was performed 2 and 4 weeks with compound treatment.
For echocardiography analyses mice were anesthetized by 2.4% isoflurane inhalation and ventricular measurements were done with a VisualSonics Vevo 2100 Imaging System equipped with a 45 MHz MS-550D MicroScan transducer. The observer was unaware of the genotypes and treatments.
Differences between experimental groups were analyzed using ANOVA test followed by Bonferroni's Multiple Comparison Test using Prism Graphpad 4. Data are presented as mean±SEM. P<0.05 values were considered significant.

In series [2] the test system is C57B1/6 mice undergoing TAC operations. Put plainly: Transverse aortic constriction (TAC) animal model, Example 5. It is filed as in vivo. On the procedure:
In male C57B1/6 mice (12-14 weeks old, average weight 26 g), high pressure overload induced by restricting the aorta following the method published by de Alameida et al. (J vis exp. 2010 Apr. 21; [38]). Control animals were treated with sham operations. The animals were observed over a period of 4 weeks after the operation, and then mini osmotic pumps were implanted intraperitoneally with a compound to be tested (0.5, 5, 50, and 100 μmol/l, corresponding to 6 μg/kg/day) (Table 2), a β1-adrenergic receptor antagonist (metoprolol; 24 mg/kg/day), a β1-adrenergic receptor […], a PDE3-inhibitor (milrinone; 3.0 mg/kg/d), and DMSO. Echocardiograms were done two and four weeks after implantation.
As expected, the narrowing of the aorta leads to cardiac hypertrophy and chronic heart failure in the 4-week period after surgery. The ejection fraction (ejection fraction; Ef) is the portion of the blood contained in the chambers of the heart that is ejected in comparison with the total volume at the end of diastole of the ventricle. […] The following groups were measured:
Animals undergoing sham operations with • only DMSO as vehicle control (solid black bar); • Compound 59, 3 μg/kg/day in DMSO (checked bar); • Compound 59, 6 μg/kg/day in DMSO (bold crosshatched bar);
Animals undergoing TAC operations with • only DMSO as vehicle control (bold vertically hatched bar); • Compound 59, 0.03 μg/kg/day in DMSO (bold diagonal hatching to upper right); • Compound 59, 0.03 μg/kg/day in DMSO (bold diagonal hatching to lower right); • Compound 59, 3 μg/kg/day in DMSO (thin diagonal hatching to upper right); • Compound 59, 6 μg/kg/day in DMSO (thin diagonal hatching to lower right);

The mark [3] stands for this setting: class from IC50 values in assays of Examples 1, 2 or 3.
Where [4] appears, read: between 0.3 and 3 μg/kg/d, vs. DMSO.

Sequence of AKAP-PKA interaction (P13861 2-404 limits assumed): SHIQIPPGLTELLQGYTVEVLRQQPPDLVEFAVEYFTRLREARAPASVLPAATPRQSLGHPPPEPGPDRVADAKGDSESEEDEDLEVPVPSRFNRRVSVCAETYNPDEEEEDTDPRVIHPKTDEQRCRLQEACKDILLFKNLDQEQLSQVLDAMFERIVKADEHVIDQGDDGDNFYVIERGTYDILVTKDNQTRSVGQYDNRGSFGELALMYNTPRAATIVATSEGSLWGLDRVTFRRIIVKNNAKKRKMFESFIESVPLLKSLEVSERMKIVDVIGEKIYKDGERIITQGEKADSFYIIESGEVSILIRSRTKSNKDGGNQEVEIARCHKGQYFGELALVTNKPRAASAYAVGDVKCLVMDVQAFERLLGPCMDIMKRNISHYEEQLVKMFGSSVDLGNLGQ
Sequence of PKA subunit RIIα (P13861 whole entry): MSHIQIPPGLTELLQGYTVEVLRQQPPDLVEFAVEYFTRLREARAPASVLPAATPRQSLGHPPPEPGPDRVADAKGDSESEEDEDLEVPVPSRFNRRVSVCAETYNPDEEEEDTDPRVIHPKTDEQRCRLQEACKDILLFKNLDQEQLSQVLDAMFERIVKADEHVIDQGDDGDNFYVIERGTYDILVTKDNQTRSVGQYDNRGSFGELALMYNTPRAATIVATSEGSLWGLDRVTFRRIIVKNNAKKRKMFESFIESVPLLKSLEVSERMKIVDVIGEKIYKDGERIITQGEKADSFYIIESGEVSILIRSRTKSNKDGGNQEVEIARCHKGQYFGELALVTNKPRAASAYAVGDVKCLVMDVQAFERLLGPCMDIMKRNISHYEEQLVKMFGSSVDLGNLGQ

On to `Cc1cnc(N/C=C2\Sc3ccccc3C2=O)s1` [T2/11, (2Z)-2-[[(5-methylthiazole-2-yl)amino]methylene]benzothiophene-3-one], for which, on AKAP-PKA interaction (alkyl substituent on heteroaromatic pentacycle), the “IC50 relative to that of the unsubstituted mother compound” value is recorded as “about 50%”. On AKAP-PKA interaction (setting [3]), the IC50 was less than 150 µM. On PKA subunit RIIα, binding was characterised by a dissociation constant (Kd) of 31.9 µM.

Turning to `N#Cc1cnc(N/C=C2\Sc3ccccc3C2=O)s1` [T2/15, 2-[[(z)-(3-oxobenzothiophene-2-ylidene)methyl]amino]thiazole-5-carbonitrile], the IC50 on AKAP-PKA interaction (setting [3]) was less than 25 µM. Besides, in series [1] (setting [4]), the cardiac function entry was “improved function” and the “heart rate or -mass” value is recorded as “without increasing”. Also, in series [1] (echocardiography, i.p. mini-osmotic pump, 2 and 4 weeks treatment), the “wall dimensions and cavity diameter (IVSd, LVPWd, LVEDd)” value is “no significant effect”. Further, in series [1] (treatment vs. DMSO, FIG. 6), the “HW/TL (heart weight normalized against tibia length)” value is “has an effect on HW/TL”. On PKA subunit RIIα, this compound came in with a Kd of 98.1 µM.

With `O=C1/C(=N/Nc2nccs2)Sc2ccccc21` [T2/50, (2Z)-2-(thiazole-2-ylhydrazono)benzothiophene-3-one], the IC50 at AKAP-PKA interaction (setting [3]) is less than 25 µM.

As to `Cc1csc(N/N=C2\Sc3ccccc3C2=O)n1` [T2/51, (2Z)-2-[(4-methylthiazole-2-yl)hydrazono]benzothiophene-3-one], the IC50 at AKAP-PKA interaction (setting [3]) is less than 25 µM.

In the case of `O=C1/C(=N/Nc2ncc([N+](=O)[O-])s2)Sc2ccccc21` [T2/52, (2Z)-2-[(5-nitrothiazole-2-yl)hydrazono]benzothiophene-3-one], the IC50 on AKAP-PKA interaction (setting [3]) is less than 25 µM.

Regarding `O=C(O)c1cnc(N/N=C2\Sc3ccccc3C2=O)s1` [T2/53, 2-[(2Z)-2-(3-oxobenzothiophene-2-ylidene)hydrazino]thiazole-5-carboxylic acid], at AKAP-PKA interaction (setting [3]), the IC50 is less than 25 µM.

Consider `O=C1/C(=C/Nc2nc3ccccc3s2)Cc2ccccc21` [T2/55, (2e)-2-[(1,3-benzothiazole-2-ylamino)methylene]indane-1-one], for which, at AKAP-PKA interaction (setting [3]), the IC50 is less than 250 µM.

Regarding `O=C(O)c1ccc(N/C=C2\Cc3ccccc3C2=O)cc1` [T2/56, 4-[[(e)-(1-oxoindan-2-ylidene)methyl]amino]benzoic acid], the IC50 at AKAP-PKA interaction (setting [3]) is less than 150 µM.

For the compound `O=C1/C(=C/Nc2nc3ccccc3s2)Oc2ccccc21` [T2/57, (2Z)-2-[(1,3-benzothiazole-2-ylamino)methylene]benzofuran-3-one], the IC50 at AKAP-PKA interaction (setting [3]) is 250 to 750 µM.

In the case of `O=C(O)c1ccc(N/C=C2\Oc3ccccc3C2=O)cc1` [T2/58, 4-[[(z)-(3-oxobenzofuran-2-ylidene)methyl]amino]benzoic acid], the “Activity (IC50 class)” value on AKAP-PKA interaction (setting [3]) was 4-[[(z)-(3-oxobenzofuran-2-ylidene)methyl]amino]benzoic acid Activity: B/C.

Take `O=C(O)c1ccc(N/C=C2\Sc3ccccc3C2=O)cc1` [T2/59, 4-[[(z)-(3-oxobenzothiophene-2-ylidene)methyl]amino]benzoic acid]: on AKAP-PKA interaction (setting [3]), the IC50 is less than 250 µM. The heart rate result in series [2] (TAC model mice) is on record as “does not affect the heart rate”. Further, the “ejection fraction (Ef)” value in series [2] (TAC operated mice, i.p. mini osmotic pump, depending on the dose, operated without treatment 20%, healthy >60%) amounted to 40%. In addition, the “heart weight (ratio of heart weight to the tibia length)” value in series [2] (TAC operated treated mice, FIG. 2) was “falls significantly”. At PKA subunit RIIα, this compound yielded a Kd of 88.5 µM.

`Cc1ccccc1N/C=C1/Sc2ccccc2C1=O` [T3/4, (2E)-2-[(2-methylanilino)methylene]benzothiophen-3-one]: at AKAP-PKA interaction, the “Activity in AKAP-PKA interaction assays (in words)” value is given as “abolished activity”.

`O=C1/C(=C/Nc2ccc(O)cc2)Sc2ccccc21` [VI, (2Z)-2-[(4-hydroxyanilino)methylene]benzothiophen-3-one, reference compound]: the “Activity in AKAP-PKA interaction assays (in words)” value on AKAP-PKA interaction is “could not be found to show significant reduction of AKAP-PKA interaction”.
